# Measurements published in paper PMC10589313 (Nature Communications, 2023).
# Where “and” joins values, the source holds several entries; their conditions need not be identical. Identical values can stand only once.
# Key:
# human H4R Y319A mutant = molecular target: T1, human H4R Y319A mutant (Homo sapiens, UniProt Q9H3N8, Y319A); assay: TGFα shedding assay, H4R Y319A mutant; assay type: cell-based
# T1 construct: a mutant H4R (human, full-length, and untagged); expressed in transfected cells; host or cells: HEK293A
# Protocol: (§1) The mutants were prepared using the primers listed in Supplementary Table 2. […] The chimeric Gαq/i1 subunit comprises the Gαq backbone and Gαi1-derived six-amino acid C-terminus and couples with Gi-coupled H4R but induces a Gq-dependent TGFα shedding response. After culturing for 1 day and incubating at 37 °C in a 5% CO2 incubator, the transfected cells were harvested by trypsinization, neutralized with Dulbecco’s modified Eagle’s medium containing 10% fetal calf serum (FCS) and penicillin–streptomycin, washed once with Hank’s balanced salt solution (HBSS) containing 5 mM of HEPES (pH 7.4), and resuspended in 6 mL of the HEPES-containing HBSS. The cell suspension was seeded into a 96-well plate at a volume of […] per well (typically, 48 wells per transfected cells) and incubated for 30 min in the CO2 incubator. Test compounds (10×, diluted in 0.01% BSA and 5 mM of HEPES-containing HBSS, […] volume) were added to duplicate wells and incubated for 1 h. After centrifugation, the conditioned medium ([…]) was transferred to an empty 96-well plate. AP reaction solution [10 mM of p-nitrophenylphosphate (p-NPP), 120 mM of Tris–HCl (pH 9.5), 40 mM of NaCl, and 10 mM of MgCl2] was dispensed into the cell culture plates and plates containing conditioned media ([…]). Absorbance was measured at 405 nm before and after a 1-h incubation period at 25 °C using a microplate reader (iMark™ Microplate Absorbance Reader; BioRad). Ligand-induced AP-TGFα release was calculated as previously described. The vehicle-treated AP-TGFα release signal was set as a baseline unless otherwise specified. AP-TGFα release signals were fitted with a four-parameter sigmoidal concentration-response curve, from which EC50 and Emax values were obtained, using GraphPad Prism 9 software (GraphPad Prism). Negative values of logarithmically transformed EC50 values (pEC50) were used to calculate the mean and standard error of independent experiments.
# (§2) All functional study data were analyzed using Prism 9 (GraphPad) and are presented as mean ± standard error of the mean (SEM) of three independent experiments. Statistical analyses were performed using Prism 9 (GraphPad) with one-way analysis of variance followed by Dunnett’s post-hoc test. Values with p < 0.05 are considered statistically significant.
# human H4R N147Y mutant = molecular target: T2, human H4R N147Y mutant (Homo sapiens, UniProt Q9H3N8, N147Y); assay: TGFα shedding assay, H4R N147Y mutant; assay type: cell-based; conditions: for EC50: EC50 (nM)
# T2 construct: a mutant H4R (human, full-length, and untagged); expressed in transfected cells; host or cells: HEK293A
# Protocol: as §1, §2
# human H4R Y95A mutant = molecular target: T3, human H4R Y95A mutant (Homo sapiens, UniProt Q9H3N8, Y95A); assay: TGFα shedding assay, H4R Y95A mutant; assay type: cell-based
# T3 construct: a mutant H4R (human, full-length, and untagged); expressed in transfected cells; host or cells: HEK293A
# Protocol: as §1
# All functional study data were analyzed using Prism 9 (GraphPad) and are presented as mean ± standard error of the mean (SEM) of three independent experiments. […]
# H4R = conditions: read-out: binding affinity (Ki) for H4R; cited from earlier work
# [1] = Imetit (M) -5 (log concentration), raw replicate values
# T3 sequence (Q9H3N8 whole entry Y95A): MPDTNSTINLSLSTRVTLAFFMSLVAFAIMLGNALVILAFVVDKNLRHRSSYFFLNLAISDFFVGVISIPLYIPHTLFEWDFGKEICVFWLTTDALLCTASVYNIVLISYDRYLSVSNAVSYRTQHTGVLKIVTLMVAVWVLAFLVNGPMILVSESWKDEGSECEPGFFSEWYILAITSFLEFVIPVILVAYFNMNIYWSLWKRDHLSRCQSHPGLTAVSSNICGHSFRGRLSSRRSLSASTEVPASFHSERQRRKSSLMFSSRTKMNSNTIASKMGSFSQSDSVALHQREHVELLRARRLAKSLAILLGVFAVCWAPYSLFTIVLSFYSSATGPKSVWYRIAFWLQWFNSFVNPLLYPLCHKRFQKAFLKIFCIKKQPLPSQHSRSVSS
# T1 sequence (Q9H3N8 whole entry Y319A): as the sequence (Q9H3N8 whole entry Y95A) above, with A95Y, Y319A counted along it
# T2 sequence (Q9H3N8 whole entry N147Y): as the sequence (Q9H3N8 whole entry Y95A) above, with A95Y, N147Y counted along it
smiles,measurement,setting,value
"N=C(N)SCCc1cnc[nH]1 [Imetit, imetit]",EC50,"human H4R Y319A mutant; EC50 (nM), Y319A mutant",159 nM
same,"Shedding assay response, Y319A",human H4R Y319A mutant; [1],15.1866 and 16.9873 and 18.1596 and 17.4201 and 15.3203 and 22.2497 and 14.1035 and 13.1515 and 10.7745
same,fold of change,"human H4R Y319A mutant; Y319A mutant, EC50 relative to WT",5.3 fold
same,EC50,"human H4R Y319A mutant; pEC50 mean ± SEM, Y319A mutant",141 nM
same,Emax,human H4R Y319A mutant; read-out: Emax (%) mean ± SEM,15.8 ± 1.58%
same,EC50,human H4R N147Y mutant; N147Y mutant,319 nM
same,EC50,"human H4R N147Y mutant; N147Y, single experiments, source data Figure 4e-f",632 nM and 127 nM and 200 nM
same,"Shedding assay response, N147Y",human H4R N147Y mutant; [1],5.667 and 6.627 and 11.6194 and 11.6248 and 10.5662 and 9.653 and 14.7457 and 12.0475 and 16.0734
same,fold of change,"human H4R N147Y mutant; N147Y mutant, EC50 relative to WT",10.7 fold
same,Emax,human H4R N147Y mutant; read-out: Emax (%) mean ± SEM,11.1 ± 1.47%
same,EC50,human H4R Y95A mutant,> 10000 nM
same,"Shedding assay response, Y95A",human H4R Y95A mutant; [1],0.2008 and 4.141 and 6.475 and 5.892 and -1.081 and 3.761 and 1.333 and 3.151 and 12.3655
same,Ki,H4R,2.7 nM
